{"source": "patent US20170235917A1", "about": "“SYSTEMS AND METHODS FOR MONITORING AND CONTROLLING A CARD[…] OF A SUBJECT” (THE GENERAL HOSPITAL CORPORATION, priority 2014, published 2017)", "key": {"[1]": {"conditions": "for 1/τ (inverse time constant of drug distribution and equilibration) / tD (delay): mean ± SD, five piglets", "protocol": "Five neonatal Yorkshire Duroc piglets of 10+/−3 d of age weighting 2.4+/−0.6 kg were pre-anesthetized with ketamine (33 mg/kg) and atropine (0.05 mg/kg), intubated, and anesthetized using 1.5-3.0% isoflurane while mechanically ventilated. Core body temperature was kept at 38+/−0.5° C. BP, HR, arterial O2 saturation, end-tidal CO2, fraction of inspired O2, and pulmonary compliance were continuously monitored. HR beyond 250 bpm was captured using the PC-Vet wireless ECG system or direct counting. The animals received intravenous heparin (200 units/kg/h), physiologic saline (10 mL/kg/h), and 10 g/dL of dextrose-water to adjust serum glucose levels using Genie Plus syringe pumps validated for stability of infusion rate. Serum electrolytes, base excess (−6 to +6), pH (7.20-7.45), partial arterial O2 pressure (80-120 mmHg) and partial arterial CO2 pressure (35-45 mmHg), and arterial O2 saturation (90-100%) were maintained in the target ranges using sodium bicarbonate, potassium chloride, lactated Ringer's solution, and ventilatory changes, respectively. Both femoral veins and left femoral artery were cannulated for fluid and drug administration, and arterial BP measurements and blood sampling, respectively. […] The baseline measurements were recorded after a 15-min postsurgical stabilization period, followed by the escalation of dose, and a 15-min washout period after the discontinuation of the medication. […] To deduce the rate of change of the hemodynamic parameters, the data obtained were subdivided into baseline, low dose (0.25 mcg/kg/min), medium dose (0.5 and 0.75 mcg/kg/min) and high dose (1, 1.5 and 2 mcg/kg/min). BP and HR were collected in real time at a sampling rate of 0.2 Hz."}, "[2]": {"conditions": "range across four pooled subject groups, cited from earlier work"}}, "note": "Read-outs that look alike come from different tables or passages of the source."}
{"compound": "CNC[C@H](O)c1ccc(O)c(O)c1", "note": "[epinephrine]", "values": [{"measurement": "1/τ (inverse time constant of drug distribution and equilibration)", "setting": "[1]; X = H (HR)", "result": "4.1e−3 ± 4.5e−3"}, {"measurement": "tD (delay)", "setting": "[1]; X = R (TPR)", "result": "48.6 ± 17.6", "unit": "s"}, {"measurement": "1/τ (inverse time constant of drug distribution and equilibration)", "setting": "[1]; X = δV (SV)", "result": "0.01 ± 0.02"}, {"measurement": "tD (delay)", "setting": "[1]; X = δV (SV)", "result": "29.1 ± 26.1", "unit": "s"}, {"measurement": "HR increase as share of its maximum response", "setting": "[1]; after the first dose escalation (0.25 mcg/kg/min), averaged over five piglets", "result": 55, "unit": "%"}, {"measurement": "HR at which the response starts to saturate", "setting": "[1]; doses of 1-2 mcg/kg/min, one particular piglet", "result": "around 400 bpm"}, {"measurement": "MAP response", "setting": "[1]; from the low-dose range, averaged over five piglets (FIG. 10)", "result": "persistently increases"}, {"measurement": "DBP", "setting": "[2]; epinephrine 020 ng/kg/min", "result": "69-88 mmHg"}, {"measurement": "HR", "setting": "[2]; epinephrine 020 ng/kg/min", "result": "64-69 bpm"}, {"measurement": "MAP", "setting": "[2]; epinephrine 020 ng/kg/min", "result": "83-110 mmHg"}, {"measurement": "SBP", "setting": "[2]; epinephrine 020 ng/kg/min", "result": "112-153 mmHg"}, {"measurement": "SVI", "setting": "[2]; epinephrine 020 ng/kg/min", "result": "54-65 ml/m^2"}, {"measurement": "DBP", "setting": "[2]; epinephrine 040 ng/kg/min", "result": "66-83 mmHg"}, {"measurement": "HR", "setting": "[2]; epinephrine 040 ng/kg/min", "result": "68-73 bpm"}, {"measurement": "MAP", "setting": "[2]; epinephrine 040 ng/kg/min", "result": "82-106 mmHg"}, {"measurement": "SBP", "setting": "[2]; epinephrine 040 ng/kg/min", "result": "114-153 mmHg"}, {"measurement": "SVI", "setting": "[2]; epinephrine 040 ng/kg/min", "result": "55-68 ml/m^2"}, {"measurement": "DBP", "setting": "[2]; epinephrine 080 ng/kg/min", "result": "62-79 mmHg"}, {"measurement": "HR", "setting": "[2]; epinephrine 080 ng/kg/min", "result": "71-76 bpm"}, {"measurement": "MAP", "setting": "[2]; epinephrine 080 ng/kg/min", "result": "83-105 mmHg"}, {"measurement": "SBP", "setting": "[2]; epinephrine 080 ng/kg/min", "result": "124-158 mmHg"}, {"measurement": "SVI", "setting": "[2]; epinephrine 080 ng/kg/min", "result": "58-71 ml/m^2"}, {"measurement": "DBP", "setting": "[2]; epinephrine 120 ng/kg/min", "result": "61-79 mmHg"}, {"measurement": "HR", "setting": "[2]; epinephrine 120 ng/kg/min", "result": "72-81 bpm"}, {"measurement": "MAP", "setting": "[2]; epinephrine 120 ng/kg/min", "result": "84-109 mmHg"}, {"measurement": "SBP", "setting": "[2]; epinephrine 120 ng/kg/min", "result": "132-168 mmHg"}, {"measurement": "SVI", "setting": "[2]; epinephrine 120 ng/kg/min", "result": "59-74 ml/m^2"}, {"measurement": "DBP", "setting": "[2]; epinephrine 160 ng/kg/min", "result": "61-80 mmHg"}, {"measurement": "HR", "setting": "[2]; epinephrine 160 ng/kg/min", "result": "75-79 bpm"}, {"measurement": "MAP", "setting": "[2]; epinephrine 160 ng/kg/min", "result": "86-109 mmHg"}, {"measurement": "SBP", "setting": "[2]; epinephrine 160 ng/kg/min", "result": "136-170 mmHg"}, {"measurement": "SVI", "setting": "[2]; epinephrine 160 ng/kg/min", "result": "59-77 ml/m^2"}]}
